Laboratory results: PMC10840383, “Clinical features, functional consequences, and rescue pharmacology of missense GRID1 and GRID2 human variants” (Human Molecular Genetics, 2023)
Where a chain is given by its changes, count along the chain named.

Tests used:
Format in all cases: cell-based
Details in all cases: positive = increase, negative = decrease of activity
GluD2-R710W = molecular target: T1, GluD2-R710W (Rattus norvegicus, UniProt Q63226, R710W); experiment: TEVC of constitutive current, Xenopus oocytes expressing GluD2-R710W
T1 construct: expressed in transfected cells; host or cells: Xenopus laevis oocytes injected with cRNA
T1 sequence (Q63226 24-1007 R710W): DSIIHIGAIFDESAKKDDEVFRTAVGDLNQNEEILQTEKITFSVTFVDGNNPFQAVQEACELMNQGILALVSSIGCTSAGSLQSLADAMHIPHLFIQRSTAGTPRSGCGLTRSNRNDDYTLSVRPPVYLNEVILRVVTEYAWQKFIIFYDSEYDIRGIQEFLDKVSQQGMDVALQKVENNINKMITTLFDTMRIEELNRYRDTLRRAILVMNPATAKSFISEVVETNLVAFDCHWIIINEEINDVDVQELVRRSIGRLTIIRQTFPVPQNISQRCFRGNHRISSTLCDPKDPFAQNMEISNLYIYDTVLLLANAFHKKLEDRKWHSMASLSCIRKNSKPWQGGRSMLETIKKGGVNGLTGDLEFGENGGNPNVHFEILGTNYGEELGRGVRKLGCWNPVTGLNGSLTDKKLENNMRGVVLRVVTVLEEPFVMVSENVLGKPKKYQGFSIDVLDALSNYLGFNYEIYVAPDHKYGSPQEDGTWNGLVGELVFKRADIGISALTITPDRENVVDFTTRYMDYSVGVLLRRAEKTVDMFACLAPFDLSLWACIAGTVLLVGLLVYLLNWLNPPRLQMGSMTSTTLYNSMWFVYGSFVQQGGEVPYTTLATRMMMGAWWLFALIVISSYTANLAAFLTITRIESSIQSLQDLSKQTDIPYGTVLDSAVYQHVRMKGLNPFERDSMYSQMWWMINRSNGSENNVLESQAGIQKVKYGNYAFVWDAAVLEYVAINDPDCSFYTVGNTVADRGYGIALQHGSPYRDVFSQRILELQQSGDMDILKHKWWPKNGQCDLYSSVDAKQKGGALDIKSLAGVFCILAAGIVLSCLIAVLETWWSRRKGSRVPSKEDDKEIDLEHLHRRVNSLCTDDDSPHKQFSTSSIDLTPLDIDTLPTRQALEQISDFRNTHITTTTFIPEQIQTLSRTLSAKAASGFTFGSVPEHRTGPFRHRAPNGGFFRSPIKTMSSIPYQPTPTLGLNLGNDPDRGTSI

GluD2-T649M = molecular target: T2, GluD2-T649M (Rattus norvegicus, UniProt Q63226, T649M); experiment: TEVC of constitutive current, Xenopus oocytes expressing GluD2-T649M
T2 construct: expressed in transfected cells; host or cells: Xenopus laevis oocytes injected with cRNA
T2 sequence (Q63226 24-1007 T649M): T1 sequence (Q63226 24-1007 R710W) with T626M, W687R

GluD1-S647F = molecular target: T3, GluD1-S647F (Homo sapiens, UniProt Q9ULK0, S647F); experiment: TEVC of constitutive current, Xenopus oocytes expressing GluD1-S647F
T3 construct: expressed in transfected cells; host or cells: Xenopus laevis oocytes injected with cRNA
T3 sequence (Q9ULK0 21-1009 S647F): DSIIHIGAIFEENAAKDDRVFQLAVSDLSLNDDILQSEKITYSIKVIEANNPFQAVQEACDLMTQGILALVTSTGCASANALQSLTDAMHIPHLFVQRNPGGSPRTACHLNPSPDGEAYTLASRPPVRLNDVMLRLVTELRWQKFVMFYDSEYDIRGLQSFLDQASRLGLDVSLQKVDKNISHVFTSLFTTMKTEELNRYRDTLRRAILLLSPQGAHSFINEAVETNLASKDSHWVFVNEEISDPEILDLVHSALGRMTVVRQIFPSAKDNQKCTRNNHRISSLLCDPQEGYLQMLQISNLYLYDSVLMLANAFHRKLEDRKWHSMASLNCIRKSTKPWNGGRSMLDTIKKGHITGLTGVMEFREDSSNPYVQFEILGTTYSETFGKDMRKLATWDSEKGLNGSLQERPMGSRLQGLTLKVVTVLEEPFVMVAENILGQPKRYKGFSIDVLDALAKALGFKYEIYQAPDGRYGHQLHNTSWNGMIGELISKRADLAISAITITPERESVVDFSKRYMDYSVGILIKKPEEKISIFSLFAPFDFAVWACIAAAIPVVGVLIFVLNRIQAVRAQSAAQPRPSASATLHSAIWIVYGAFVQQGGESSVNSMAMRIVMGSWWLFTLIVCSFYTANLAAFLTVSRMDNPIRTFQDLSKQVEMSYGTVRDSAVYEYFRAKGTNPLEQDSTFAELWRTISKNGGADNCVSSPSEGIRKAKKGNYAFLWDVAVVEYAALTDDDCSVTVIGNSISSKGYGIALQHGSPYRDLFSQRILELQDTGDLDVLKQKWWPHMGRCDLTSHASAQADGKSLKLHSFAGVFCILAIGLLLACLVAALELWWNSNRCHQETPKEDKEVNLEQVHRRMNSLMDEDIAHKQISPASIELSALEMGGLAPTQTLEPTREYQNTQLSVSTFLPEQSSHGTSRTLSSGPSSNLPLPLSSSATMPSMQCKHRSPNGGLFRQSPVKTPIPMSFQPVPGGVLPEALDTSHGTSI

| D-Serine effect (Baseline −10 mM D-Serine) (GluD2-R710W; 10 mM D-serine) | D-Serine effect (Baseline −10 mM D-Serine) (GluD2-T649M; 10 mM D-serine) | D-Serine effect (Baseline −10 mM D-Serine) (GluD1-S647F; 10 mM D-serine) | SMILES | Pentamidine effect (Baseline −100 μM Pentamidine) (GluD2-R710W; 100 μM pentamidine) | Pentamidine effect (Baseline −100 μM Pentamidine) (GluD2-T649M; 100 μM pentamidine) | Pentamidine effect (Baseline −100 μM Pentamidine) (GluD1-S647F; 100 μM pentamidine) |
| --- | --- | --- | --- | --- | --- | --- |
|  |  |  | N=C(N)c1ccc(OCCCCCOc2ccc(C(=N)N)cc2)cc1 [Pentamidine, pentamidine] | 0.82 ± 1.9 (11) nA | 5.8 ± 7.0 (16) nA | −47 ± 11 (10) nA |
| −2.3 ± 0.60 (11) nA | −0.31 ± 2.8 (16) nA | 14 ± 3.8 (10) nA | N[C@H](CO)C(=O)O [D-serine] |  |  |  |
